Measured values reported in patent US12227500B2, “Substituted pyrrolo[2,3-b]pyridines for suppressing toxic endoplasmic reticulum stress” (THE TRUSTEES OF COLUMBIA UNIVERSITY IN THE CITY OF NEW YORK, priority 2018, dated 2025).

How the values were obtained:
Assay in all cases: Radiolabeled ATP kinase assay, panel of 371 kinases (Table S6)
Assay type in all cases: biochemical
[1] = biological target: T1, panel of 371 human kinases (Homo sapiens, UniProt O14920); conditions: IKKb/IKBKE; 0.1 μM; 10 μM ATP; read-out: % Enzyme Activity (relative to DMSO controls)
T1 construct: purchased Reaction Biology Corp
From the text: (§1) ; FIG. 38C). […]. Further targeted analyses, such as genetic knock-down or knock-out, may be warranted to parse the role of these additional kinases in our model of neurodegeneration.

[2] = biological target: T2, panel of 371 human kinases (Homo sapiens, UniProt P21802); conditions: FGFR2; 0.1 μM; 10 μM ATP; read-out: % Enzyme Activity (relative to DMSO controls)
T2 construct: purchased Reaction Biology Corp
From the text: as §1

[3] = biological target: T3, panel of 371 human kinases (Homo sapiens, UniProt P36507); conditions: MEK2; 0.1 μM; 10 μM ATP; read-out: % Enzyme Activity (relative to DMSO controls)
T3 construct: purchased Reaction Biology Corp
From the text: as §1

[4] = biological target: T4, panel of 371 human kinases (Homo sapiens, UniProt P49759); conditions: CLK1; 0.1 μM; 10 μM ATP; read-out: % Enzyme Activity (relative to DMSO controls)
T4 construct: purchased Reaction Biology Corp
From the text: as §1

[5] = biological target: T5, panel of 371 human kinases (Homo sapiens, UniProt P49760); conditions: CLK2; 0.1 μM; 10 μM ATP; read-out: % Enzyme Activity (relative to DMSO controls)
T5 construct: purchased Reaction Biology Corp
From the text: as §1

[6] = biological target: T6, panel of 371 human kinases (Homo sapiens, UniProt P53779); conditions: JNK3; 0.1 μM; 10 μM ATP; read-out: % Enzyme Activity (relative to DMSO controls)
T6 construct: purchased Reaction Biology Corp
From the text: as §1

[7] = biological target: T7, panel of 371 human kinases (Homo sapiens, UniProt P54753); conditions: EPHB3; 0.1 μM; 10 μM ATP; read-out: % Enzyme Activity (relative to DMSO controls)
T7 construct: purchased Reaction Biology Corp
From the text: as §1

[8] = biological target: T8, panel of 371 human kinases (Homo sapiens, UniProt Q12851); conditions: for remaining activity at 0.1 µM: GCK/MAP4K2, 10 μM ATP, read-out: % Enzyme Activity (relative to DMSO controls)
T8 construct: purchased Reaction Biology Corp
T8 sequence (Q12851 1-820): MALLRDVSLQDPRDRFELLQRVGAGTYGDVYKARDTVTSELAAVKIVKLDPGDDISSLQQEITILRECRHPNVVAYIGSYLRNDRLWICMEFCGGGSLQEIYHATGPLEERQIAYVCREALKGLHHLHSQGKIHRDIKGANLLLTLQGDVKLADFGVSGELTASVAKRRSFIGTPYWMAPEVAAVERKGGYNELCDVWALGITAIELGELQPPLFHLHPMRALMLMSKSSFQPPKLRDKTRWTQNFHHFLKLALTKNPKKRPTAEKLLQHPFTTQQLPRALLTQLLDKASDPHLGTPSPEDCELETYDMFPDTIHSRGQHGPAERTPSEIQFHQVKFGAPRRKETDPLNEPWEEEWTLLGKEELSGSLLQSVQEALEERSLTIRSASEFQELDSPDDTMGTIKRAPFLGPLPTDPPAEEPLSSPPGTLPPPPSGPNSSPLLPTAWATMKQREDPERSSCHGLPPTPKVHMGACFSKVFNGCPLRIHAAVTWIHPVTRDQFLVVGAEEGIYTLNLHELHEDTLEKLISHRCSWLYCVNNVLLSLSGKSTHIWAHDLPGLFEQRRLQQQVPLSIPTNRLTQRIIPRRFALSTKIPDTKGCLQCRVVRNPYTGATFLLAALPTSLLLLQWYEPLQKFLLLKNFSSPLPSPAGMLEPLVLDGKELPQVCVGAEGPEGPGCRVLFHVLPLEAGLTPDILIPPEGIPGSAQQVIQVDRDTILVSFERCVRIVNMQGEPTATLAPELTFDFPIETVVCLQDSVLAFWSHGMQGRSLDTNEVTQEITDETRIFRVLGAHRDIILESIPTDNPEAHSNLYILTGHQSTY
From the text: as §1

[9] = biological target: T9, panel of 371 human kinases (Homo sapiens, UniProt Q13153); conditions: PAK1; 0.1 μM; 10 μM ATP; read-out: % Enzyme Activity (relative to DMSO controls)
T9 construct: purchased Reaction Biology Corp
From the text: as §1

[10] = biological target: T10, panel of 371 human kinases (Homo sapiens, UniProt Q14012); conditions: CAMK1a; 0.1 μM; 10 μM ATP; read-out: % Enzyme Activity (relative to DMSO controls)
T10 construct: purchased Reaction Biology Corp
From the text: as §1

[11] = biological target: T11, panel of 371 human kinases (Homo sapiens, UniProt Q16539); conditions: P38a/MAPK14; 0.1 μM; 10 μM ATP; read-out: % Enzyme Activity (relative to DMSO controls)
T11 construct: purchased Reaction Biology Corp
From the text: as §1

[12] = biological target: T12, panel of 371 human kinases (Homo sapiens, UniProt Q86UX6); conditions: STK32C/YANK3; 0.1 μM; 10 μM ATP; read-out: % Enzyme Activity (relative to DMSO controls)
T12 construct: purchased Reaction Biology Corp
From the text: as §1

[13] = biological target: T13, panel of 371 human kinases (Homo sapiens, UniProt Q8IY84); conditions: NIM1; 0.1 μM; 10 μM ATP; read-out: % Enzyme Activity (relative to DMSO controls)
T13 construct: purchased Reaction Biology Corp
From the text: as §1

[14] = biological target: T14, panel of 371 human kinases (Homo sapiens, UniProt Q9H2K8); conditions: TAOK3/JIK; 0.1 μM; 10 μM ATP; read-out: % Enzyme Activity (relative to DMSO controls)
T14 construct: purchased Reaction Biology Corp
From the text: as §1

[15] = biological target: T15, panel of 371 human kinases (Homo sapiens, UniProt Q9H2X6); conditions: HIPK2; 0.1 μM; 10 μM ATP; read-out: % Enzyme Activity (relative to DMSO controls)
T15 construct: purchased Reaction Biology Corp
From the text: as §1

[16] = biological target: T16, panel of 371 human kinases (Homo sapiens, UniProt Q9H792); conditions: PEAK1; 0.1 μM; 10 μM ATP; read-out: % Enzyme Activity (relative to DMSO controls)
T16 construct: purchased Reaction Biology Corp
From the text: as §1

[17] = biological target: T17, panel of 371 human kinases (Homo sapiens, UniProt Q9NYY3); conditions: PLK2; 0.1 μM; 10 μM ATP; read-out: % Enzyme Activity (relative to DMSO controls)
T17 construct: purchased Reaction Biology Corp
From the text: as §1

[18] = biological target: T18, panel of 371 human kinases (Homo sapiens, UniProt Q9UIK4); conditions: DAPK2; 0.1 μM; 10 μM ATP; read-out: % Enzyme Activity (relative to DMSO controls)
T18 construct: purchased Reaction Biology Corp
From the text: as §1

T15 sequence (Q9H2X6 whole entry): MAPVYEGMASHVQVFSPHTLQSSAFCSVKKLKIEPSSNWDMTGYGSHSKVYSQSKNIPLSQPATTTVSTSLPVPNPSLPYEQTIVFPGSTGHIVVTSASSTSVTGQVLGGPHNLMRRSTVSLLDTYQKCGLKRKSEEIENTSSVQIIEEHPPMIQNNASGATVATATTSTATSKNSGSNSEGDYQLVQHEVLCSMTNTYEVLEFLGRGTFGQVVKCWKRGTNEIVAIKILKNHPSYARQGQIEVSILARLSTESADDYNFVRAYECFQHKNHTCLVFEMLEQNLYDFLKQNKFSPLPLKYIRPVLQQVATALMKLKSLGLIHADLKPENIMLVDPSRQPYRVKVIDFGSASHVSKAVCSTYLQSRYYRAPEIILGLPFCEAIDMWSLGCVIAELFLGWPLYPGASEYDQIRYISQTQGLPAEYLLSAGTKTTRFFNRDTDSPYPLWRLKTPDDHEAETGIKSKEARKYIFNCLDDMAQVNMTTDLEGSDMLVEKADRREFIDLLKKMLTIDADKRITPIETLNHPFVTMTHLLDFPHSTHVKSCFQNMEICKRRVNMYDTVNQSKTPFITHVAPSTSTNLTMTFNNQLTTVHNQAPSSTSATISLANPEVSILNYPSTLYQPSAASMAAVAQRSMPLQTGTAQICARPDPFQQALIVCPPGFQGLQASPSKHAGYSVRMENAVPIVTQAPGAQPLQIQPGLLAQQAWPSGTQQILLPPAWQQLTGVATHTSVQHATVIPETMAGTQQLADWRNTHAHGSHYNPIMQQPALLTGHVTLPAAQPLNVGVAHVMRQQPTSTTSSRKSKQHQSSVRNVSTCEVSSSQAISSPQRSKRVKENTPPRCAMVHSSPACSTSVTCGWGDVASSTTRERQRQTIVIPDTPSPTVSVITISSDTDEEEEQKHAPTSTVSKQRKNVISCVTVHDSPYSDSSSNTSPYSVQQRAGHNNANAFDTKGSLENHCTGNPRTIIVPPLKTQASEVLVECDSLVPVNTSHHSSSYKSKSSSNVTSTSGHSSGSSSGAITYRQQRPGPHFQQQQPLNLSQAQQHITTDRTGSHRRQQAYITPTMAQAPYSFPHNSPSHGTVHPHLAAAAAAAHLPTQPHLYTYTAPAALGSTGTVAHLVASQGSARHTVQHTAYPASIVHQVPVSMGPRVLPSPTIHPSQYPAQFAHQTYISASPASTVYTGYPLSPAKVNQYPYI
T11 sequence (Q16539 whole entry): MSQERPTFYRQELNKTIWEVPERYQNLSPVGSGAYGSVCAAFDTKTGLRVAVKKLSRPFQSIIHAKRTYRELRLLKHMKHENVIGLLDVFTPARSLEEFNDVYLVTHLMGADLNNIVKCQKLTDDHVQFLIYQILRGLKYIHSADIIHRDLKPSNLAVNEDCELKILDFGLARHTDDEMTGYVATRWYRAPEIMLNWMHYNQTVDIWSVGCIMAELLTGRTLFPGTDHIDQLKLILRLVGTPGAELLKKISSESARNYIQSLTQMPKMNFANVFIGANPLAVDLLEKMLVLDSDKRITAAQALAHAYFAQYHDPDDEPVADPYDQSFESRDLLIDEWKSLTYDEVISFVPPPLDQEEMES
T10 sequence (Q14012 whole entry): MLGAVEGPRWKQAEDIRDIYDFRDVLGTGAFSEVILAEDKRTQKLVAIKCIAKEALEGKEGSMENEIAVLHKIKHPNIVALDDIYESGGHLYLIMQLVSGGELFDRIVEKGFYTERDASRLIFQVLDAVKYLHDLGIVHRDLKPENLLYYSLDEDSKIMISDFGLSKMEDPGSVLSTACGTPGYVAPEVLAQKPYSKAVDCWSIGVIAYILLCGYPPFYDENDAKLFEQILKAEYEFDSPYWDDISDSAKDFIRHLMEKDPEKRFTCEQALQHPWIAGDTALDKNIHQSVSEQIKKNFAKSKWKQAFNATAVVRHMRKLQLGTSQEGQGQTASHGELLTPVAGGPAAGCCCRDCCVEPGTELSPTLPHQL
T4 sequence (P49759 whole entry): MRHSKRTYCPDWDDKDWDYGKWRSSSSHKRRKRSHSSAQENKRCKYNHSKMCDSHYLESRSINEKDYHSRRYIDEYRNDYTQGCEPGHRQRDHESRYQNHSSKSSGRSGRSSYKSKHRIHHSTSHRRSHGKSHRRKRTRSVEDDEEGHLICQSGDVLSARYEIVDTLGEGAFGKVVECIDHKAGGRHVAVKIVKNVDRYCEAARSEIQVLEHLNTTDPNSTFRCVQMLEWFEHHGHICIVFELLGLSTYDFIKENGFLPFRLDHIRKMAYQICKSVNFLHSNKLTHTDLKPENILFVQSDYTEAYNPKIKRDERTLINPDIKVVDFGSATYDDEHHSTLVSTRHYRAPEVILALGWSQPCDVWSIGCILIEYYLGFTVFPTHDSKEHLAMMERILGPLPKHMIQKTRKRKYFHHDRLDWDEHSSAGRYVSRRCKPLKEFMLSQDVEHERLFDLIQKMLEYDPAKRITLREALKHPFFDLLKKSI
T14 sequence (Q9H2K8 whole entry): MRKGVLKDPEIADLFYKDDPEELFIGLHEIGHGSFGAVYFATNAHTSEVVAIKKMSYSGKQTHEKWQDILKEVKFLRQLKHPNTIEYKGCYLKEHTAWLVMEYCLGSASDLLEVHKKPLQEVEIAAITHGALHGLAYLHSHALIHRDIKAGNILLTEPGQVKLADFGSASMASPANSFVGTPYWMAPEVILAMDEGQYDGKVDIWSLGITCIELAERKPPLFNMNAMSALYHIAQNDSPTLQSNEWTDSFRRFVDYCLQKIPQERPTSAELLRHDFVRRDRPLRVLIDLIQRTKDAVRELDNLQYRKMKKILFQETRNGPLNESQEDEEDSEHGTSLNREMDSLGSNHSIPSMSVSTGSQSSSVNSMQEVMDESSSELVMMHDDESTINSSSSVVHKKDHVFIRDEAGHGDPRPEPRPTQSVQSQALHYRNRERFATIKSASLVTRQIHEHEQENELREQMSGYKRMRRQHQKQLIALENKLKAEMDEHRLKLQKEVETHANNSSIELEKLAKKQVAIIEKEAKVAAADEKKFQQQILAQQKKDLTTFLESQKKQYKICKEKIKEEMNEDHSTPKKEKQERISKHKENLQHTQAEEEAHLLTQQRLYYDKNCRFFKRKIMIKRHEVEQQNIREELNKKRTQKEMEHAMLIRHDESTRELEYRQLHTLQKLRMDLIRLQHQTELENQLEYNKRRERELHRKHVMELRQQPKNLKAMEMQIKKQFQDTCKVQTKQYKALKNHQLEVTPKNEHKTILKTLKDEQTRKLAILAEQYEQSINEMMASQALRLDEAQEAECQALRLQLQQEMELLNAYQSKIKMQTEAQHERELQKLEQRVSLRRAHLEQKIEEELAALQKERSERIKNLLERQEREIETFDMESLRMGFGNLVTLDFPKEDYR
T12 sequence (Q86UX6 whole entry): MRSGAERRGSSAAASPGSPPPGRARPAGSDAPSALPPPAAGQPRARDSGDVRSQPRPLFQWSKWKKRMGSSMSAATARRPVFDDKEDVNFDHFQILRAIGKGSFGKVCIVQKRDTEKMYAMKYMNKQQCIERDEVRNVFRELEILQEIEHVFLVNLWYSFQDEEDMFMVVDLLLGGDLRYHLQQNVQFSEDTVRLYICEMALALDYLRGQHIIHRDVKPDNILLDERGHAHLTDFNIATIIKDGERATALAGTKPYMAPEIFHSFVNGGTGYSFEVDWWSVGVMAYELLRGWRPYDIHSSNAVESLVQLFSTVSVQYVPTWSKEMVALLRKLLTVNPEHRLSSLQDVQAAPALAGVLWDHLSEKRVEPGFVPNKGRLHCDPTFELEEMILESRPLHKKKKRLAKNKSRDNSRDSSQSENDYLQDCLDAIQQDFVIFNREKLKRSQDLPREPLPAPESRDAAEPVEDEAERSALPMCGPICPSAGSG
T6 sequence (P53779 whole entry): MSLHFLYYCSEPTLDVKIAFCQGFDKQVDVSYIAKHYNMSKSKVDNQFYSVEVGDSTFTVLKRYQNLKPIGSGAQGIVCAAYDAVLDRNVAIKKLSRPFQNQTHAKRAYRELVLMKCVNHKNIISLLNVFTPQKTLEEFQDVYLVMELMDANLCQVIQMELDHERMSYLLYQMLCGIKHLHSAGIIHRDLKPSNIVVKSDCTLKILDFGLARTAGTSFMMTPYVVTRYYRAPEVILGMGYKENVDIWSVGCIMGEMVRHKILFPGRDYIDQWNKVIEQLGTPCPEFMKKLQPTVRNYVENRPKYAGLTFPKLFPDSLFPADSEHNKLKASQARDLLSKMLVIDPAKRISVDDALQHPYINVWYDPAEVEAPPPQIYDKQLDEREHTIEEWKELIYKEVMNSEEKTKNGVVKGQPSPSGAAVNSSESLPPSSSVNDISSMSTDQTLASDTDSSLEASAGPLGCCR
T5 sequence (P49760 whole entry): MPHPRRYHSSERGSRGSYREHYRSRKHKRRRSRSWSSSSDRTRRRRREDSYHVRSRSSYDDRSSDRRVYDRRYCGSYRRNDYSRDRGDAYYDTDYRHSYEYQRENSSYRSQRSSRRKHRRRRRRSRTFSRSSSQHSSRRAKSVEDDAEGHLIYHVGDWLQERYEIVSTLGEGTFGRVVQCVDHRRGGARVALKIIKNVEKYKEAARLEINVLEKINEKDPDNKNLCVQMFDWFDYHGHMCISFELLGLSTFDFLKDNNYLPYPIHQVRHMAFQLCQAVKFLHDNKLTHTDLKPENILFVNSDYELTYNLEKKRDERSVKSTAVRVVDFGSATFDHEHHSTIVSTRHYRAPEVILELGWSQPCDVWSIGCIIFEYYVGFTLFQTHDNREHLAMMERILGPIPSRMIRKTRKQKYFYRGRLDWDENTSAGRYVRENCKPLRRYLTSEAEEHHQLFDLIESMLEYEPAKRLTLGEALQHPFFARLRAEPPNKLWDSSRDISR

SMILES: OCCN1CCN(Cc2ccc(-c3cnc4[nH]cc(-c5cccc(Cl)c5)c4c3)cc2)CC1 [Compound 12k, 2-(4-(4-(3-(3-Chlorophenyl)-1H-pyrrolo[2,3-b]pyridin-5-yl)benzyl)piperazin-1-yl)ethan-1-ol]
- remaining activity at 0.1 µM [1]: 84.1%
- remaining activity at 0.1 µM [2]: 89.5%
- remaining activity at 0.1 µM [3]: 93.1%
- remaining activity at 0.1 µM [4]: 68.6%
- remaining activity at 0.1 µM [5]: 55.8%
- remaining activity at 0.1 µM [6]: 94.4%
- remaining activity at 0.1 µM [7]: 101%
- fold change in GCK activity following 12k exposure relative to 1 ([8]; 0.025 μM): 6.22 fold
- remaining activity at 0.1 µM [8]: 10.2%
- remaining activity at 0.1 µM [9]: 78.2%
- remaining activity at 0.1 µM [10]: 121%
- remaining activity at 0.1 µM [11]: 103%
- remaining activity at 0.1 µM [12]: 93%
- remaining activity at 0.1 µM [13]: 105%
- remaining activity at 0.1 µM [14]: 79.8%
- remaining activity at 0.1 µM [15]: 95.7%
- remaining activity at 0.1 µM [16]: 101%
- remaining activity at 0.1 µM [17]: 101%
- remaining activity at 0.1 µM [18]: 105%

SMILES: CN1CCN(Cc2ccc(-c3cnc4[nH]cc(-c5ccc6[nH]ccc6c5)c4c3)cc2)CC1 [Compound 1, 3-(1H-Indol-5-yl)-5-(4-((4-methylpiperazin-1-yl)methyl)phenyl)-1H-pyrrolo[2,3-b]pyridine, reference compound]
- remaining activity at 0.1 µM [1]: 81.3%
- remaining activity at 0.1 µM [2]: 79.9%
- remaining activity at 0.1 µM [3]: 86.7%
- remaining activity at 0.1 µM [4]: 58.8%
- remaining activity at 0.1 µM [5]: 48.2%
- remaining activity at 0.1 µM [6]: 89.5%
- remaining activity at 0.1 µM [7]: 107%
- remaining activity at 0.1 µM [8]: 63.6%
- remaining activity at 0.1 µM [9]: 85.2%
- remaining activity at 0.1 µM [10]: 100%
- remaining activity at 0.1 µM [11]: 105%
- remaining activity at 0.1 µM [12]: 98.3%
- remaining activity at 0.1 µM [13]: 106%
- remaining activity at 0.1 µM [14]: 87.3%
- remaining activity at 0.1 µM [15]: 110%
- remaining activity at 0.1 µM [16]: 109%
- remaining activity at 0.1 µM [17]: 97.2%
- remaining activity at 0.1 µM [18]: 118%
